In patent publication US20230149432A1, “Human Milk Oligosaccharides for Improving Resistance of Organism Against Staphylococcus Aureus Infection” (Inner Mongolia Yili Industrial Group Co., Ltd., priority 2020, published 2023):

Columns and labels:
[1] = test system: Staphylococcus aureus ATCC25923; experiment: Nematode infection model and lifespan assay (survival of C. elegans infected by Staphylococcus aureus); type: in vivo, Caenorhabditis elegans; details: for dose-effect relationship of protection of nematode survival: doses up to 30 mg/mL
Procedure: Human milk oligosaccharide solutions were prepared with distilled water and incubated in Petri dishes containing a nematode growth medium at different final concentrations (1, 10, and 30 mg/mL, respectively). To better determine the range of the ideal concentration, a preliminary screening on the dose-effect relationship of 2′-FL was first performed, and the 2′-FL concentrations used were 0.001, 0.01, 0.1, 1 and 10 mg/mL. For the HMO compositions, included were a test concentration of 8 mg/mL and a 15 mg/mL, respectively, after the addition into the nematode growth medium.
Age-consistent nematodes were obtained and cultured in Petri dishes containing nematode agar media (nematode media containing E. coli OP50 as food) with different doses of HMO (1, 8, 10, 15, 30 mg/mL) for co-culture. After the nematodes came into adulthood, they were transferred to petri dishes inoculated with Staphylococcus aureus ATCC25923 (supplemented at approximately 10^8 to 10^9CFU/mL) to simulate the condition of infection by Staphylococcus aureus. The intervening substances (HMO) added in the infection stage of each group were the same as those in the culture stage. Two controls were used, one without the pathogen (C. elegans dish containing E. coli OP50) and one with Staphylococcus aureus infection without any intervention (dish with Staphylococcus aureus only). In addition, a group in which an intervening substance was added in the culture phase and no intervention in the infection phase, and a group in which the intervention substance was not added in the cultivation phase but added in the infection phase were set up.
Several days into the culture of the nematodes, their survival rate was counted on a daily basis. […] Two independent assays were carried out for each condition (that is, unless otherwise specified, the experimental data in the examples were the results of two independent experiments).
Statistical comparative analysis of survival curves was performed, and log rank survival significance analysis was performed using the GraphPad Prism 4 or GraphPad Prism 9 statistical software package. One-way ANOVA was used to analyze for significant differences in survival rates among the groups on the third or fifth day of infection. For the comparison of the groups, an asterisk*represents the degree of the significant difference, with ****indicating P<0.0001, and ***indicating P<0.001. NS means not significant.

[2] = test system: Staphylococcus aureus ATCC25923; experiment: Disc diffusion bacteriostatic zone experiment; type: cell-based; details: positive control, 200 μg/mL; 37° C., 18 hours
Procedure: In order to determine whether the tested materials themselves have an antibacterial effect, a bacteriostatic zone experiment for disk diffusion was carried out. Discs were prepared with sterile filter paper impregnated with the tested HMO materials (10 mg/mL, 30 mg/mL), and the discs were dried overnight under sterile conditions. Staphylococcus aureus ATCC25923 (1.0×10^6CFU/mL) was spread evenly on the surface of a NGM agar plate, and then the discs were placed on the surface of the inoculated agar plate petri dish. Gentamicin (200 μg/mL) was used as a positive control. All dishes were incubated at 37° C. for 18 hours.
In order to investigate whether the protective effects of individual HMOs or their compositions against Staphylococcus aureus infection, as presented in previous tests, were derived from direct bactericidal or bacteriostatic function, a test was carried out in which the test material was incubated with the bacteria population and observed whether an bacteriostatic zone of was formed. As shown in the figure, at two different concentration (left: 10 mg/mL, right: 30 mg/mL), none of the human milk oligosaccharides alone formed a transparent annular bacteriostatic zone around the inoculation site. […]

[3] = 1 mg/mL, vs infected control without intervention
[4] = 10 mg/mL, vs infected control without intervention
[5] = 30 mg/mL, vs infected control without intervention

Molecule | effect on nematode survival rate after Staphylococcus aureus infection [1, 3] | effect on nematode survival rate after Staphylococcus aureus infection [1, 4] | effect on nematode survival rate after Staphylococcus aureus infection [1, 5] | dose-effect relationship of protection of nematode survival [1] | survival rate of nematodes compared with 2′-FL ([1]; infection for 3 days, 3-FL 10 mg/mL vs 2′-FL 30 mg/mL) | protection of nematodes compared with 2′-FL at the same dose ([1]; same dose, infection for 3 days) | survival rate of nematodes ([1]; under protection of 6′-SL, 10 or 30 mg/mL, infected for 3 days) | effect on lifespan of nematodes after Staphylococcus aureus infection ([1]; 15 mg/mL) | effect on nematode survival rate after Staphylococcus aureus infection ([1]; 15 mg/mL, another batch of experiments) | effect on nematode survival rate after Staphylococcus aureus infection ([1]; doses at 1 mg/mL or less, survival curve vs infected control without intervention) | formation of a transparent annular bacteriostatic zone [2]
3-fucosyllactose [Composition 3-FL] | no effect | better protective function (P<0.0001) | better protective function (P<0.0001) | greater protection shown at higher doses | the same effect was achieved with 3-FL at 10 mg/mL as that with 2′-FL at 30 mg/mL | more effective in protecting nematodes from Staphylococcus aureus infection than 2′-FL | – | – | – | – | –
CC(=O)N[C@H]1[C@H]([C@H](O)[C@H](O)CO)O[C@@](OC[C@H]2O[C@@H](O[C@H]3[C@H](O)[C@@H](O)[C@H](O)O[C@@H]3CO)[C@H](O)[C@@H](O)[C@H]2O)(C(=O)O)C[C@@H]1O [6′-SL, 6′-sialyllactose] | not greatly improved | significantly improved | significantly improved | has a dose-effect relationship | – | – | up to 75% | – | – | – | –
2′-fucosyllactose [2′-FL] | – | considerable increase in nematode survival rate which was significant (P<0.0001) | the protective effect was significantly increased, and the effect was significant (P<0.0001) | dose-dependent and optimal at 30 mg/mL | – | – | – | significantly prolongs the lifespan of nematodes | significantly improves the survival rate of nematodes | did not show any effects | –
CC(=O)N[C@H]1[C@H](O[C@H]2[C@@H](O)[C@@H](CO)O[C@@H](O[C@H]3[C@H](O)[C@@H](O)C(O)O[C@@H]3CO)[C@@H]2O)O[C@H](CO)[C@@H](O)[C@@H]1O[C@@H]1O[C@H](CO)[C@H](O)[C@H](O)[C@H]1O (stereo partly shown) [LNT, Lacto-N-Tetraose] | not greatly improved | significantly improved | significantly improved | has a dose-effect relationship | – | – | – | – | – | – | –
CC(=O)N[C@H]1[C@H]([C@H](O)[C@H](O)CO)O[C@@](O[C@H]2[C@@H](O)[C@@H](CO)O[C@@H](O[C@H]3[C@H](O)[C@@H](O)C(O)O[C@@H]3CO)[C@@H]2O)(C(=O)O)C[C@@H]1O (stereo partly shown) [3′-SL, 3′-sialyllactose] | no significant effect was observed | no significant effect was observed | no significant effect was observed | – | – | – | – | – | – | – | –
Gentamicin | – | – | – | – | – | – | – | – | – | – | showed a bacteriostatic effect
